# Measurements reported in PubChem BioAssay (NCI).
#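 Protocol summary: plate cells (96-well), add compound at 5 concentrations, incubate 48 h, interpolate endpoints linearly. The concentration for full growth arrest is given as TGI.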
# How the values were obtained:
# Assay in all cases: NCI-60 cell line screen, 48 h
# [1] = system: 786-0 renal
# [2] = system: A498 renal
# [3] = system: A549 NSCLC
# [4] = system: ACHN renal
# [5] = system: BT-549 breast
# [6] = system: CAKI-1 renal
# [7] = system: CCRF-CEM leukemia
# [8] = system: COLO 205 colon
# [9] = system: DU-145 prostate
# [10] = system: EKVX NSCLC
# [11] = system: HCC-2998 colon
# [12] = system: HCT-116 colon
# [13] = system: HCT-15 colon
# [14] = system: HL-60(TB) leukemia
# [15] = system: HOP-62 NSCLC
# [16] = system: HOP-92 NSCLC
# [17] = system: HS 578T breast
# [18] = system: HT29 colon
# [19] = system: IGROV1 ovarian
# [20] = system: K-562 leukemia
# [21] = system: KM12 colon
# [22] = system: LOX IMVI melanoma
# [23] = system: M14 melanoma
# [24] = system: MALME-3M melanoma
# [25] = system: MCF7 breast
# [26] = system: MDA-MB-231 breast
# [27] = system: MDA-MB-435
# [28] = system: MDA-N
# [29] = system: MOLT-4 leukemia
# [30] = system: NCI-H226 lung
# [31] = system: NCI-H23 lung
# [32] = system: NCI-H460 lung
# [33] = system: NCI-H522 lung
# [34] = system: NCI/ADR-RES ovarian
# [35] = system: OVCAR-3 ovarian
# [36] = system: OVCAR-4 ovarian
# [37] = system: OVCAR-5 ovarian
# [38] = system: OVCAR-8 ovarian
# [39] = system: PC-3 prostate
# [40] = system: RPMI-8226 leukemia
# [41] = system: RXF 393 renal
# [42] = system: SF-268 CNS
# [43] = system: SF-295 CNS
# [44] = system: SF-539 CNS
# [45] = system: SK-MEL-2 melanoma
# [46] = system: SK-MEL-28 melanoma
# [47] = system: SK-MEL-5 melanoma
# [48] = system: SK-OV-3 ovarian
# [49] = system: SN12C renal
# [50] = system: SNB-19 CNS
# [51] = system: SNB-75 CNS
# [52] = system: SR leukemia
# [53] = system: SW-620 colon
# [54] = system: T-47D breast
# [55] = system: TK-10 renal
# [56] = system: U251 CNS
# [57] = system: UACC-257 melanoma
# [58] = system: UACC-62 melanoma
# [59] = system: UO-31 renal
structure (smiles),measurement,setting,value
CC1=Nn2c(nc3sc4c(c3c2=O)CCCC4)SC1,TGI,[1],> 100 µM
same,TGI,[2],> 100 µM
same,TGI,[3],> 100 µM
same,TGI,[4],> 100 µM
same,TGI,[5],> 100 µM
same,TGI,[6],> 100 µM
same,TGI,[7],> 76.3 µM
same,TGI,[8],> 100 µM
same,TGI,[9],> 100 µM
same,TGI,[10],> 100 µM
same,TGI,[11],> 100 µM
same,TGI,[12],> 100 µM
same,TGI,[13],> 100 µM
same,TGI,[14],> 87.4 µM
same,TGI,[15],> 100 µM
same,TGI,[16],> 100 µM
same,TGI,[17],> 100 µM
same,TGI,[18],> 100 µM
same,TGI,[19],> 100 µM
same,TGI,[20],> 100 µM
same,TGI,[21],> 100 µM
same,TGI,[22],53.7 µM
same,TGI,[23],> 100 µM
same,TGI,[24],> 100 µM
same,TGI,[25],> 100 µM
same,TGI,[26],> 100 µM
same,TGI,[27],> 100 µM
same,TGI,[28],> 31.6 µM
same,TGI,[29],> 94.6 µM
same,TGI,[30],> 100 µM
same,TGI,[31],> 100 µM
same,TGI,[32],> 100 µM
same,TGI,[33],> 100 µM
same,TGI,[34],> 100 µM
same,TGI,[35],> 100 µM
same,TGI,[36],> 100 µM
same,TGI,[37],> 100 µM
same,TGI,[38],> 100 µM
same,TGI,[39],> 100 µM
same,TGI,[40],> 100 µM
same,TGI,[41],> 100 µM
same,TGI,[42],> 100 µM
same,TGI,[43],> 100 µM
same,TGI,[44],> 100 µM
same,TGI,[45],> 100 µM
same,TGI,[46],> 100 µM
same,TGI,[47],> 100 µM
same,TGI,[48],> 100 µM
same,TGI,[49],> 100 µM
same,TGI,[50],> 100 µM
same,TGI,[51],> 100 µM
same,TGI,[52],> 100 µM
same,TGI,[53],> 100 µM
same,TGI,[54],> 100 µM
same,TGI,[55],> 100 µM
same,TGI,[56],> 100 µM
same,TGI,[57],> 100 µM
same,TGI,[58],> 100 µM
same,TGI,[59],> 100 µM
